By EC50 is commonly meant the midpoint of the concentration-response curve. As usually defined, the solubility is the dissolved amount per volume that the medium holds. What is called IC50 is the midpoint of a concentration-inhibition curve.

The subject of series [1] is HEK293. Put plainly: Cytotoxicity in HEK293 cells assessed as reduction in cell survival incubated for 48 hrs by MTT assay. Type of series: cell-based. Particulars: Homo sapiens, HEK293, 48 h. Background: Tetrazolium assays rely on reduction of a dye to a coloured formazan, in cell work by metabolically active cells.
For series [2], the system named is HEK293. The experiment in a line: Stimulation of cell growth in HEK293 cells assessed as cell growth rate at 200 uM incubated for 48 hrs by MTT assay. In kind it is functional. The note with it: Homo sapiens, HEK293, 48 h; read-out: Activity.
Series [3] can be described thus: Safety index, ratio of EC50 for aristolochic acid to EC50 for test compound for cytotoxicity in HEK293 cells assessed as reduction in cell survival incubated for 48 hrs by MTT assay. Type of series: cell-based. The note with it: human, read-out: Ratio EC50.
A short description of series [4]: Antioxidant activity assessed as ABTS radical scavenging activity at 0.1 mM incubated for 6 mins by spectrophotometry. Type of series: functional.
A short description of series [5]: Thermal stability of the compound assessed as drug degradation by measuring compound weight loss at 30 to 100 degC. Type of series: physicochemical. The note with it: read-out: Drug degradation.
Series [6] is described as follows: Solubility in water at pH 5.7 under nitrogen and sheltered from light condition incubated for 1 hr. In kind it is physicochemical.
Series [7] in a line: Antioxidant activity assessed as DPPH radical scavenging activity at 0.09 mM incubated for 30 mins. In kind it is functional.
Series [8] in a line: Solubility in PBS using micronized compound measured at 60 mins. Type of series: physicochemical.
Series [9] can be described thus: Antioxidant activity assessed as ABTS radical scavenging activity incubated for 6 mins by spectrophotometry. In kind it is functional.
The nature of series [10]: Antioxidant activity assessed as DPPH radical scavenging activity using micronized compound. In kind it is functional. On the technique in general: Loss of DPPH colour is used to gauge radical scavenging.
Series [11] can be described thus: Antioxidant activity assessed as DPPH radical scavenging activity at 0.03 to 0.06 mM incubated for 30 mins. In kind it is functional.
The test system of series [12] is HEK293. Put plainly: Stimulation of cell growth in HEK293 cells assessed as increase in cell survival at 2 to 360 uM incubated for 48 hrs by MTT assay. Type of series: functional, cell-based. Particulars: Homo sapiens.
The test system of a further series is HeLa. The experiment in a line: Cytotoxicity in human HeLa cells assessed as reduction in cell survival incubated for 48 hrs by MTT assay. In kind it is functional, cell-based.
Series [13] in a line: Reducing power of the compound assessed as reducing Fe3+ power at 0.15 to 1.2 mM using potassium ferricyanide in pH 6.6 KH2PO4-K2HPO4 buffer by UV spectrophotometry. Type of series: physicochemical. Particulars: pH 6.6, 1200 µM.
A short description of series [14]: Thermal stability of the compound assessed as drug degradation by measuring compound weight loss at 247 to 600 degC. In kind it is physicochemical. Particulars: read-out: Drug degradation.
Series [15] is described as follows: Dissolution of the compound at 0.12 mg measured at 38 mins by UV spectrophotometry. In kind it is physicochemical.
Series [16] can be described thus: Dissolution of the compound at 0.12 mg measured at 360 mins by UV spectrophotometry. In kind it is physicochemical. The note with it: 6 h.
In series [17] the test system is HEK293. Put plainly: Potency index, ratio of cell growth stimulation activity of DHQ to cell growth stimulation activity of test compound for stimulation of cell growth in HEK293 cells assessed as cell growth rate at 200 uM incubated for 48 hrs by MTT assay. In kind it is functional, Homo sapiens.
Series [18] is described as follows: Ratio of solubility of DHQ to solubility of test compound in water at pH 5.7 under nitrogen and sheltered from light condition incubated for 1 hr. In kind it is physicochemical. Particulars: buffer, pH 5.7, 1 h.
A short description of series [19]: Thermal stability of the compound assessed as drug degradation by measuring compound weight loss at 217 to 600 degC. Type of series: physicochemical. The note with it: read-out: Drug degradation.

Converted amounts (≈) assume the structure as drawn. The source made the active and inactive calls. No cut-off for these calls is given here.

Regarding `COc1cccc2c1cc([N+](=O)[O-])c1c(C(=O)O)cc3c(c12)OCO3` [ARISTOLOCHIC ACID], the EC50 in the series with HEK293 [1] was 118 µM.
Turning to `O=C1c2c(O)cc(O)cc2O[C@H](c2ccc(O)c(O)c2)[C@H]1O` [(+)-TAXIFOLIN], the growth at 200 µM in the series with HEK293 [2] amounted to 22.6%. The selectivity ratio at 48 h in series [3] worked out at 5.6. Further, the Activity in series [4] was 84.9%; in series [7], 88.7%; in the series with HeLa, “Dose-dependent effect”; in series [13], “Dose-dependent effect”; in series [15], 13.8%. In addition, the degraded came to 10.1% in series [5] and 43.4% in series [14]. The solubility at 1 h in [6] worked out at 1.2 mg/mL (≈ 3940 µM); in series [8], 20 µg/mL (≈ 65.7 µM). The EC50 is 671 µM in the series on HEK293 [1] and 125 µM in the series on HeLa. The IC50 in series [9] came out at 48 µM; in series [10] it was 0.5 mg/mL (≈ 1640 µM). Also, the result (in series [11]; in the series on HEK293 [12]) was Active.
In the case of `O=C(O)C1CCCN1Cc1c(O)c(CN2CCCC2C(=O)O)c2c(c1O)C(=O)[C@@H](O)[C@H](c1ccc(O)c(O)c1)O2` (some centres undefined), in the series with HEK293 [2], the growth at 200 µM amounted to 54.5%. In series [3], the selectivity ratio at 48 h came out at 7. Moreover, the Activity in [4] is 98.3%; in [7], 85.7%; in [16], 83.78%; in the series with HeLa it was “Dose-dependent effect”; in [13], “Dose-dependent effect”; in series [15] it was 87.1%. Moreover, the solubility at 1 h in series [6] was determined as 19.5 mg/mL (≈ 35000 µM); in series [8] it was 210 µg/mL (≈ 376 µM). The EC50 came to 820 µM in the series on HEK293 [1] and 138 µM in the series with HeLa. Further, the Ratio with HEK293 [17] came to 2.5; in series [18], 16. Also, the IC50 in series [9] came to 42 µM; in series [10], 0.022 mg/mL (≈ 39.4 µM). In addition, the degraded in [19] is 64.8%. Also, the outcome (in series [11]; with HEK293 [12]) was Active.
`O=C1O[C@H]([C@@H](O)CO)C(O)=C1O` [ASCORBIC ACID]: the IC50 in series [9] was 42 µM. In [13], the Activity entry is recorded as “Dose-dependent effect”.

Values taken from ChEMBL document CHEMBL4138052, “Synthesis, characterization, solubilization, cytotoxicity and antioxidant activity of aminomethylated dihydroquercetin” (Medchemcomm, 2017).
